In PubChem BioAssay (NCI):
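Five compound concentrations were applied to cells in 96-well plates for 48 hours; endpoints were derived by simple linear interpolation of the resulting dose-response curve. GI50 is the concentration that inhibits growth by half. TGI denotes the concentration required for complete inhibition of growth.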

Assays:
Experiment in all cases: NCI-60 cell line screen, 48 h
SK-MEL-5 melanoma = system: SK-MEL-5 melanoma
UACC-62 melanoma = system: UACC-62 melanoma
OVCAR-5 ovarian = system: OVCAR-5 ovarian
SNB-19 CNS = system: SNB-19 CNS
LOX IMVI melanoma = system: LOX IMVI melanoma
EKVX NSCLC = system: EKVX NSCLC
OVCAR-3 ovarian = system: OVCAR-3 ovarian
SN12C renal = system: SN12C renal
IGROV1 ovarian = system: IGROV1 ovarian
SW-620 colon = system: SW-620 colon
DU-145 prostate = system: DU-145 prostate
HCC-2998 colon = system: HCC-2998 colon
OVCAR-4 ovarian = system: OVCAR-4 ovarian
NCI-H460 lung = system: NCI-H460 lung
M14 melanoma = system: M14 melanoma
SF-539 CNS = system: SF-539 CNS
K-562 leukemia = system: K-562 leukemia
HS 578T breast = system: HS 578T breast
NCI-H23 lung = system: NCI-H23 lung
BT-549 breast = system: BT-549 breast
ACHN renal = system: ACHN renal
NCI-H522 lung = system: NCI-H522 lung
SK-MEL-2 melanoma = system: SK-MEL-2 melanoma
UACC-257 melanoma = system: UACC-257 melanoma
HCT-116 colon = system: HCT-116 colon
TK-10 renal = system: TK-10 renal
SR leukemia = system: SR leukemia
NCI/ADR-RES ovarian = system: NCI/ADR-RES ovarian
T-47D breast = system: T-47D breast
MCF7 breast = system: MCF7 breast
HCT-15 colon = system: HCT-15 colon
U251 CNS = system: U251 CNS
HOP-92 NSCLC = system: HOP-92 NSCLC
SK-MEL-28 melanoma = system: SK-MEL-28 melanoma
KM12 colon = system: KM12 colon
MDA-MB-231 breast = system: MDA-MB-231 breast
OVCAR-8 ovarian = system: OVCAR-8 ovarian
PC-3 prostate = system: PC-3 prostate
A549 NSCLC = system: A549 NSCLC
SK-OV-3 ovarian = system: SK-OV-3 ovarian
SF-295 CNS = system: SF-295 CNS
MDA-MB-435 = system: MDA-MB-435
UO-31 renal = system: UO-31 renal
HT29 colon = system: HT29 colon
786-0 renal = system: 786-0 renal
MOLT-4 leukemia = system: MOLT-4 leukemia
A498 renal = system: A498 renal
SNB-75 CNS = system: SNB-75 CNS
COLO 205 colon = system: COLO 205 colon
SF-268 CNS = system: SF-268 CNS
HL-60(TB) leukemia = system: HL-60(TB) leukemia
RXF 393 renal = system: RXF 393 renal
NCI-H226 lung = system: NCI-H226 lung
CAKI-1 renal = system: CAKI-1 renal
MALME-3M melanoma = system: MALME-3M melanoma
HOP-62 NSCLC = system: HOP-62 NSCLC

In the case of `COc1ccc2c(c1)sc1nc(-c3ccccc3)c(-c3ccc(O)c(OC)c3)n12`, the GI50 (SK-MEL-5 melanoma) is reported as 3.64 µM, the TGI (SK-MEL-5 melanoma) is reported as > 100 µM and the GI50 (UACC-62 melanoma) is reported as 8.29 µM. For the same compound, the TGI (UACC-62 melanoma) was > 100 µM, the GI50 (OVCAR-5 ovarian) was 33.7 µM and the TGI (OVCAR-5 ovarian) was > 100 µM. The GI50 (SNB-19 CNS) was 32.5 µM, the TGI (SNB-19 CNS) was > 100 µM and the GI50 (LOX IMVI melanoma) was 7.67 µM. The TGI (LOX IMVI melanoma) was > 100 µM, the GI50 (EKVX NSCLC) was 74.7 µM and the TGI (EKVX NSCLC) was > 100 µM. For the same compound, the GI50 (OVCAR-3 ovarian) was 10.1 µM, the TGI (OVCAR-3 ovarian) was 63.8 µM and the GI50 (SN12C renal) was 80.4 µM. The TGI (SN12C renal) was > 100 µM, the GI50 (IGROV1 ovarian) was > 100 µM and the TGI (IGROV1 ovarian) was > 100 µM. The GI50 (SW-620 colon) was 5.15 µM, the TGI (SW-620 colon) was > 100 µM and the GI50 (DU-145 prostate) was 35.4 µM. For the same compound, the TGI (DU-145 prostate) was > 100 µM, the GI50 (HCC-2998 colon) was > 100 µM and the TGI (HCC-2998 colon) was > 100 µM. The GI50 (OVCAR-4 ovarian) was 39.1 µM, the TGI (OVCAR-4 ovarian) was > 100 µM and the GI50 (NCI-H460 lung) was 6.51 µM. For the same compound, the TGI (NCI-H460 lung) was > 100 µM, the GI50 (M14 melanoma) was 4.34 µM and the TGI (M14 melanoma) was > 100 µM. The GI50 (SF-539 CNS) was 6.63 µM, the TGI (SF-539 CNS) was > 100 µM and the GI50 (K-562 leukemia) was 4.53 µM. For the same compound, the TGI (K-562 leukemia) was > 100 µM, the GI50 (HS 578T breast) was > 100 µM and the TGI (HS 578T breast) was > 100 µM. For the same compound, the GI50 (NCI-H23 lung) was 95.5 µM, the TGI (NCI-H23 lung) was > 100 µM and the GI50 (BT-549 breast) was 17.5 µM. For the same compound, the TGI (BT-549 breast) was > 100 µM, the GI50 (ACHN renal) was 38.9 µM and the TGI (ACHN renal) was > 100 µM. For the same compound, the GI50 (NCI-H522 lung) was 15 µM, the TGI (NCI-H522 lung) was > 100 µM and the GI50 (SK-MEL-2 melanoma) was 21.3 µM. For the same compound, the TGI (SK-MEL-2 melanoma) was > 100 µM, the GI50 (UACC-257 melanoma) was > 100 µM and the TGI (UACC-257 melanoma) was > 100 µM. For the same compound, the GI50 (HCT-116 colon) was 4.95 µM, the TGI (HCT-116 colon) was > 100 µM and the GI50 (TK-10 renal) was > 100 µM. The TGI (TK-10 renal) was > 100 µM, the GI50 (SR leukemia) was 3.34 µM and the TGI (SR leukemia) was > 100 µM. The GI50 (NCI/ADR-RES ovarian) was 4.55 µM, the TGI (NCI/ADR-RES ovarian) was > 100 µM and the GI50 (T-47D breast) was 83.1 µM. The TGI (T-47D breast) was > 100 µM, the GI50 (MCF7 breast) was 28.6 µM and the TGI (MCF7 breast) was > 100 µM. For the same compound, the GI50 (HCT-15 colon) was 4.03 µM, the TGI (HCT-15 colon) was > 100 µM and the GI50 (U251 CNS) was 5.28 µM. The TGI (U251 CNS) was > 100 µM, the GI50 (HOP-92 NSCLC) was 28 µM and the TGI (HOP-92 NSCLC) was > 100 µM. The GI50 (SK-MEL-28 melanoma) was 8.99 µM, the TGI (SK-MEL-28 melanoma) was > 100 µM and the GI50 (KM12 colon) was 4.81 µM. For the same compound, the TGI (KM12 colon) was > 100 µM, the GI50 (MDA-MB-231 breast) was 9.8 µM and the TGI (MDA-MB-231 breast) was > 100 µM. The GI50 (OVCAR-8 ovarian) was 41.2 µM, the TGI (OVCAR-8 ovarian) was > 100 µM and the GI50 (PC-3 prostate) was 26.3 µM. For the same compound, the TGI (PC-3 prostate) was > 100 µM, the GI50 (A549 NSCLC) was 9.91 µM and the TGI (A549 NSCLC) was > 100 µM. For the same compound, the GI50 (SK-OV-3 ovarian) was 19.6 µM, the TGI (SK-OV-3 ovarian) was > 100 µM and the GI50 (SF-295 CNS) was 8 µM. For the same compound, the TGI (SF-295 CNS) was > 100 µM, the GI50 (MDA-MB-435) was 1.42 µM and the TGI (MDA-MB-435) was 5.59 µM. For the same compound, the GI50 (UO-31 renal) was 81 µM, the TGI (UO-31 renal) was > 100 µM and the GI50 (HT29 colon) was 3.56 µM. For the same compound, the TGI (HT29 colon) was > 100 µM, the GI50 (786-0 renal) was 30.9 µM and the TGI (786-0 renal) was > 100 µM. The GI50 (MOLT-4 leukemia) was 12.8 µM, the TGI (MOLT-4 leukemia) was > 100 µM and the GI50 (A498 renal) was 28.3 µM. The TGI (A498 renal) was > 100 µM, the GI50 (SNB-75 CNS) was 11.1 µM and the TGI (SNB-75 CNS) was > 100 µM. It also gave a GI50 (COLO 205 colon) of 5.3 µM, a TGI (COLO 205 colon) of 34.6 µM and a GI50 (SF-268 CNS) of 28.8 µM. The TGI (SF-268 CNS) was > 100 µM, the GI50 (HL-60(TB) leukemia) was 5.33 µM and the TGI (HL-60(TB) leukemia) was > 100 µM. It also gave a GI50 (RXF 393 renal) of 4.9 µM, a TGI (RXF 393 renal) of 29.8 µM and a GI50 (NCI-H226 lung) of 22 µM. For the same compound, the TGI (NCI-H226 lung) was > 100 µM, the GI50 (CAKI-1 renal) was 8.54 µM and the TGI (CAKI-1 renal) was > 100 µM. For the same compound, the GI50 (MALME-3M melanoma) was > 100 µM, the TGI (MALME-3M melanoma) was > 100 µM and the GI50 (HOP-62 NSCLC) was 37.8 µM. For the same compound, the TGI (HOP-62 NSCLC) was > 100 µM.
